Laboratory results from patent US8815881B2 (Hoffmann-La Roche Inc., priority 2010, dated 2014).

target: endogenous cellular BACE2 in the Ins1e rat cell line (Rattus norvegicus (Rat), UniProt Q6IE75); assay: Assay for BACE inhibition by measuring cellular TMEM27 cleavage (ELISA of shed hTMEM27 from INS-TMEM27 cells); format: cell-based; settings: assay a): cellular TMEM27 cleavage, INS-TMEM27 cells (superscript a)
Excerpt: a) Assay for BACE Inhibition by Measuring Cellular TMEM27 Cleavage:
The assay uses the principle of inhibition of human TMEM27 cleavage by endogenous cellular BACE2 in the Ins1e rat cell line and shedding from the cell surface into the culture medium, followed by detection in an ELISA assay. Inhibition of BACE2 prevents the cleavage and shedding in a dose-dependent manner.
The stable cell line “INS-TMEM27” represents an INS1e-derived cell line with inducible expression (using the TetOn system) of full-length hTMEM27 in a doxycycline-dependent manner. The cells are cultured throughout the experiment in RPMI1640+Glutamax (Invitrogen) Penicillin/Streptomycin, 10% Fetal bovine serum, […], […], 100 micrograms/ml G418 and 100 microgram/ml hygromycin and are grown inadherent culture at 37° C. in a standard CO2 cell culture incubator.
INS-TMEM27 cells are seeded in 96-well plates. After 2 days in culture, BACE2 inhibitor is added in a range of concentrations as required by the assay and after a further two hours, doxycycline is added to a final concentration of 500 ng/ml. The cells are incubated for a further 46 hours and the supernatant harvested for detection of shed TMEM27.
An ELISA assay (using a pair of mouse anti-human-TMEM27 antibodies, raised against the extracellular domain of TMEM27) is used for detection of TMEM27 in the culture medium. An EC50 for BACE2 inhibition is calculated using the ELISA readout for each inhibitor concentration with standard curve-fitting software such as XLFit for the Excel spreadsheet program.

Chain of endogenous cellular BACE2 in the Ins1e rat cell line (Q6IE75 63-514): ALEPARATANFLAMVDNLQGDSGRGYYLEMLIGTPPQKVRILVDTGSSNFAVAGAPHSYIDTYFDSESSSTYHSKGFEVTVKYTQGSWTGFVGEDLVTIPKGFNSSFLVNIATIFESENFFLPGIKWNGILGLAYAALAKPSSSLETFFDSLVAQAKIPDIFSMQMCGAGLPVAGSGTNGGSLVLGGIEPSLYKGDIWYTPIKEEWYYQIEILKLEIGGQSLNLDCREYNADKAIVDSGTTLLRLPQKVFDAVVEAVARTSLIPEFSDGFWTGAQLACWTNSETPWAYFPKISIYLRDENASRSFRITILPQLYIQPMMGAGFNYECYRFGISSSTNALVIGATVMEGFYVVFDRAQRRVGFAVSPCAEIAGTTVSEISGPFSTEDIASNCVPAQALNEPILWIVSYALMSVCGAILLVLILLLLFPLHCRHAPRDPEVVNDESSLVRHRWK

`CN1C(=O)C(C)(C)[C@@](C)(c2cc(NCC3(c4ccccc4)CC3)ccc2F)N=C1N` [Example 53, (S)-2-Amino-6-{2-fluoro-5-[(1-phenyl-cyclopropylmethyl)-amino]-phenyl}-3,5,5,6-tetramethyl-5,6-dihydro-3H-pyrimidin-4-one] and `Cc1ccccc1Nc1ccc(F)c([C@@]2(C)N=C(N)N(C)C(=O)C2(C)C)c1` [Example 55, (S)-2-Amino-6-(2-fluoro-5-(o-tolylamino)phenyl)-3,5,5,6-tetramethyl-5,6-dihydro-pyrimidin-4(3H)-one] are within 1.5-fold of each other in IC50: 153 nM for the first, 115 nM for the second.

Going from `CN1C(=O)C(C)(C)[C@@](C)(c2cc(NCCC(F)(F)F)ccc2F)N=C1N` [Example 54, (S)-2-Amino-6-(2-fluoro-5-(3,3,3-trifluoropropylamino)phenyl)-3,5,5,6-tetramethyl-5,6-dihydropyrimidin-4(3H)-one] to `CN1C(=O)C(C)(C)[C@@](C)(c2cc(NCC(F)(F)F)ccc2F)N=C1N` [Example 75, (S)-2-Amino-6-(2-fluoro-5-(2,2,2-trifluoroethylamino)phenyl)-3,5,5,6-tetramethyl-5,6-dihydropyrimidin-4(3H)-one], the IC50 falls from 76 nM to 12 nM (6.3-fold). The second is the more potent here.

Compared with `COc1ccccc1Nc1ccc(F)c([C@@]2(C)N=C(N)N(C)C(=O)C2(C)C)c1` [Example 56, (S)-2-Amino-6-(2-fluoro-5-(2-methoxyphenylamino)phenyl)-3,5,5,6-tetramethyl-5,6-dihydropyrimidin-4(3H)-one], `CN1C(=O)C(C)(C)[C@@](C)(c2cc(Nc3ccccc3OC(F)F)ccc2F)N=C1N` [Example 73, (S)-2-Amino-6-(5-(2-(difluoromethoxy)phenylamino)-2-fluorophenyl)-3,5,5,6-tetramethyl-5,6-dihydropyrimidin-4(3H)-one] is 9-fold higher in IC50: 15 nM for the first, 135 nM for the second.

First: CN1C(=O)C(C)(C)[C@@](C)(c2cc(NCC3CC3(F)F)ccc2F)N=C1N (stereo partly drawn) [Example 58, (S)-2-Amino-6-{5-[(2,2-difluoro-cyclopropylmethyl)-amino]-2-fluoro-phenyl}-3,5,5,6-tetramethyl-5,6-dihydro-3H-pyrimidin-4-one]
Second: CN1C(=O)C(C)(C)[C@@](C)(c2cc(NCC3(C)CC3(F)F)ccc2F)N=C1N (stereo partly drawn) [Example 68, (S)-2-Amino-6-{5-[(2,2-difluoro-1-methyl-cyclopropylmethyl)-amino]-2-fluoro-phenyl}-3,5,5,6-tetramethyl-5,6-dihydro-3H-pyrimidin-4-one]
The IC50 of the first is 3.3-fold higher: 10 nM for the first, 3 nM for the second. The second is the more potent here.

Compared with `CN1C(=O)C(C)(C)[C@@](C)(c2cc(NCc3cc[nH]n3)ccc2F)N=C1N` [Example 61, (S)-2-Amino-6-{2-fluoro-5-[(1H-pyrazol-3-ylmethyl)-amino]-phenyl}-3,5,5,6-tetramethyl-5,6-dihydro-3H-pyrimidin-4-one], `CN1C(=O)C(C)(C)[C@@](C)(c2cc(NCc3ccon3)ccc2F)N=C1N` [Example 86, (S)-2-Amino-6-{2-fluoro-5-[(isoxazol-3-ylmethyl)-amino]phenyl}-3,5,5,6-tetramethyl-5,6-dihydro-3H-pyrimidin-4-one] is 4-fold higher in IC50: 59 nM for the first, 236 nM for the second.

Going from `CN1C(=O)C(C)(C)[C@@](C)(c2cc(NC3CCc4cc(Cl)cnc43)ccc2F)N=C1N` (stereo partly drawn) [Example 62, (6S)-2-Amino-6-(5-(3-chloro-6,7-dihydro-5H-cyclopenta[b]pyridin-7-ylamino)-2-fluorophenyl)-3,5,5,6-tetramethyl-5,6-dihydropyrimidin-4(3H)-one] to `CN1C(=O)C(C)(C)[C@@](C)(c2cc(NC3CCc4cccc(F)c43)ccc2F)N=C1N` (stereo partly drawn) [Example 63, (6S)-2-Amino-6-(2-fluoro-5-(7-fluoro-2,3-dihydro-1H-inden-1-ylamino)phenyl)-3,5,5,6-tetramethyl-5,6-dihydropyrimidin-4(3H)-one], the IC50 rises from 1 nM to 21 nM (21-fold). The first is the more potent here.

Going from `CN1C(=O)C(C)(C)[C@@](C)(c2cc(NCC3CCC3)ccc2F)N=C1N` [Example 70, (S)-2-Amino-6-[5-(C-cyclobutylmethyl-amino)-2-fluoro-phenyl]-3,5,5,6-tetramethyl-5,6-dihydro-3H-pyrimidin-4-one] to `CN1C(=O)C(C)(C)[C@@](C)(c2cc(NCC3CCCOC3)ccc2F)N=C1N` (stereo partly drawn) [Example 90, (S)-2-Amino-6-{2-fluoro-5-[(tetrahydro-pyran-3-ylmethyl)-amino]-phenyl}-3,5,5,6-tetramethyl-5,6-dihydro-3H-pyrimidin-4-one], the IC50 rises from 16 nM to 467 nM (29-fold). The first is the more potent here.

Going from `CN1C(=O)C(C)(C)[C@@](C)(c2cc(NCC3(C)COC3)ccc2F)N=C1N` [Example 71, (S)-2-Amino-6-{2-fluoro-5-[(3-methyl-oxetan-3-ylmethyl)-amino]-phenyl}-3,5,5,6-tetramethyl-5,6-dihydro-3H-pyrimidin-4-one] to `CCNc1ccc(F)c([C@@]2(C)N=C(N)N(C)C(=O)C2(C)C)c1` [Example 91, (S)-2-Amino-6-(5-ethylamino-2-fluoro-phenyl)-3,5,5,6-tetramethyl-5,6-dihydro-3H-pyrimidin-4-one], the IC50 rises from 14 nM to 322 nM (23-fold). The first is the more potent here.

First: COc1ccc(Nc2ccc(F)c([C@@]3(C)N=C(N)N(C)C(=O)C3(C)C)c2)cc1 [Example 72, (S)-2-Amino-6-(2-fluoro-5-(4-methoxyphenylamino)phenyl)-3,5,5,6-tetramethyl-5,6-dihydropyrimidin-4(3H)-one]
Second: CN1C(=O)C(C)(C)[C@@](C)(c2cc(Nc3ccc(F)cc3)ccc2F)N=C1N [Example 89, (S)-2-Amino-6-[2-fluoro-5-(4-fluoro-phenylamino)-phenyl]-3,5,5,6-tetramethyl-5,6-dihydro-3H-pyrimidin-4-one]
The IC50 of the first is 5.7-fold lower: 201 nM for the first, 1140 nM for the second.

Going from `CN1C(=O)C(C)(C)[C@@](C)(c2cc(Nc3ccccc3OC(F)(F)F)ccc2F)N=C1N` [Example 74, (S)-2-Amino-6-(2-fluoro-5-(2-(trifluoromethoxy)phenylamino)phenyl)-3,5,5,6-tetramethyl-5,6-dihydropyrimidin-4(3H)-one] to `COc1cc(F)ccc1Nc1ccc(F)c([C@@]2(C)N=C(N)N(C)C(=O)C2(C)C)c1` [Example 82, (S)-2-Amino-6-(2-fluoro-5-(4-fluoro-2-methoxyphenylamino)phenyl)-3,5,5,6-tetramethyl-5,6-dihydropyrimidin-4(3H)-one], the IC50 rises from 76 nM to 135 nM (1.8-fold).

Compared with `CN1C(=O)C(C)(C)[C@@](C)(c2cc(NCC3CCOC3)ccc2F)N=C1N` (stereo partly drawn) [Example 76, (S)-2-Amino-6-{2-fluoro-5-[(tetrahydro-furan-3-ylmethyl)-amino]phenyl}-3,5,5,6-tetramethyl-5,6-dihydro-3H-pyrimidin-4-one], `CN1C(=O)C(C)(C)[C@@](C)(c2cc(NCC3(C(F)(F)F)CC3)ccc2F)N=C1N` [Example 87, (S)-2-Amino-6-{2-fluoro-5-[(1-trifluoromethyl-cyclopropylmethyl)-amino]-phenyl}-3,5,5,6-tetramethyl-5,6-dihydro-3H-pyrimidin-4-one] is 7.9-fold higher in IC50: 15 nM for the first, 119 nM for the second. The first is the more potent here.

Going from `Cc1ncsc1CNc1ccc(F)c([C@@]2(C)N=C(N)N(C)C(=O)C2(C)C)c1` [Example 78, (S)-2-Amino-6-{2-fluoro-5-[(4-methyl-thiazol-5-ylmethyl)-amino]-phenyl}-3,5,5,6-tetramethyl-5,6-dihydro-3H-pyrimidin-4-one] to `CN1C(=O)C(C)(C)[C@@](C)(c2cc(NCc3ncccn3)ccc2F)N=C1N` [Example 85, (S)-2-Amino-6-{2-fluoro-5-[(pyrimidin-2-ylmethyl)-amino]-phenyl}-3,5,5,6-tetramethyl-5,6-dihydro-3H-pyrimidin-4-one], the IC50 falls from 156 nM to 101 nM (1.5-fold).

Going from `COc1cccc(Nc2ccc(F)c([C@@]3(C)N=C(N)N(C)C(=O)C3(C)C)c2)c1` [Example 79, (S)-2-Amino-6-(2-fluoro-5-(3-methoxyphenylamino)phenyl)-3,5,5,6-tetramethyl-5,6-dihydropyrimidin-4(3H)-one] to `CN1C(=O)C(C)(C)[C@@](C)(c2cc(Nc3cccc(F)c3)ccc2F)N=C1N` [Example 88, (S)-2-Amino-6-[2-fluoro-5-(3-fluoro-phenylamino)-phenyl]-3,5,5,6-tetramethyl-5,6-dihydro-3H-pyrimidin-4-one], the IC50 rises from 44 nM to 795 nM (18-fold).

Compared with `CC(Nc1ccc(F)c([C@@]2(C)N=C(N)N(C)C(=O)C2(C)C)c1)c1ncccn1` (stereo partly drawn) [Example 80, (S)-2-Amino-6-[2-fluoro-5-(1-pyrimidin-2-yl-ethylamino)-phenyl]-3,5,5,6-tetramethyl-5,6-dihydro-3H-pyrimidin-4-one], `CC(CNc1ccc(F)c([C@@]2(C)N=C(N)N(C)C(=O)C2(C)C)c1)C(F)(F)F` (stereo partly drawn) [Example 83, (S)-2-Amino-6-[2-fluoro-5-(3,3,3-trifluoro-2-methyl-propylamino)-phenyl]-3,5,5,6-tetramethyl-5,6-dihydro-3H-pyrimidin-4-one] is 3.7-fold lower in IC50: 44 nM for the first, 12 nM for the second. The second is the more potent here.

Compared with `CN1C(=O)C(C)(C)[C@@](C)(c2cc(Nc3ccc(F)cc3F)ccc2F)N=C1N` [Example 81, (S)-2-Amino-6-(5-(2,4-difluorophenylamino)-2-fluorophenyl)-3,5,5,6-tetramethyl-5,6-dihydropyrimidin-4(3H)-one], `COc1ccc(F)cc1Nc1ccc(F)c([C@@]2(C)N=C(N)N(C)C(=O)C2(C)C)c1` [Example 84, (S)-2-Amino-6-(2-fluoro-5-(5-fluoro-2-methoxyphenylamino)phenyl)-3,5,5,6-tetramethyl-5,6-dihydropyrimidin-4(3H)-one] is 3.2-fold lower in IC50: 223 nM for the first, 69 nM for the second. The second is the more potent here.
